Reference: patent publication US20250268953A1, “COMPOSITIONS AND METHODS FOR TREATING DISEASE II” (MICROBA IP PTY LTD, priority 2021, published 2025)
“Also recorded” adds a separate entry of the source.

Legend:
DSS treated C57Bl/6 mice = experiment: Acute model of DSS induced murine colitis (gut barrier dysfunction); format: in vivo; conditions: 3% DSS six days; for DSS induced weight loss / epithelial injury / pathology / histopathological healing (histopathological score): vs DSS+vehicle
[1] = system: IL-23-mediated activation of STAT3; experiment: HEK-Blue IL-23 reporter cell line, STAT3 inducible SEAP reporter; format: cell-based, human; conditions: control Janus kinase inhibitor at 10 μM; rhIL-23 5 ng/mL, 6 hours
Procedure: Then, each seed culture broth was used to inoculate two technical replicates each generating six technical replicates from three biological replicates. The technical replicates were grown until early stationary phase and then cell free culture supernatant was harvested as previously described (Giri et al., 2019). Culture supernatants were size fractionated by passing through a 3 kDa CENTRICON® column according to the manufacturer's (Merck Millipore) instructions. To prepare A. shahii MH21-6 supernatant samples for assay, a seed culture was established from a single colony and grown until early stationary phase. Then, the seed culture broth was used to inoculate two technical replicates. […]
STAT3 activity was assessed using the HEK Blue IL-23 cell line (Invivogen). […] STAT3 regulated SEAP reporter activity was assessed using Quanti Blue solution as recommended by the manufacturer (Invivogen). […] Cytotoxicity was assessed using an MTT assay. […] Cytotoxicity was assessed by measuring absorbance at 540 nm as recommended by the manufacturer (Invitrogen, Thermo Fisher, Australia). […]
STAT3 activity was assessed using the HEK Blue IL-23 cell line (Invivogen). […] STAT3 regulated SEAP reporter activity was assessed using Quanti Blue solution as recommended by the manufacturer (Invivogen). […] Cytotoxicity was assessed using MTT assay. […]

[2] = system: IL-6-mediated activation of STAT3; experiment: HEK-Blue IL-6 reporter cell line, STAT3-responsive SEAP reporter; format: cell-based, human; conditions: control Janus kinase inhibitor at 10 μM; IL-6 2 ng/mL, 24 hours
Procedure: STAT3 activity was assessed using the HEK Blue IL-6 cell line (Invivogen). Briefly, 50,000 cells per well were seeded in triplicate in a 96-well plate 24 hours prior to the start of the assay. Bacteria supernatant or sterile bacterial medium were added to the cells at a final concentration of 10% v/v for a 60-minute pretreatment. Then recombinant human IL 6 (R&D systems) was added at a final concentration of 2 ng/mL and the cells were incubated at 37° C. for 24 hours. The ability of the supernatants to suppress IL-6 mediated STAT3 activation was compared to the Janus kinase inhibitor tofacitinib (10 μM). After 24 hours, the STAT3 regulated SEAP reporter activity was assessed using Quanti Blue solution as recommended by the manufacturer (Invivogen). Results are the average of three independent experiments. Cytotoxicity was assessed using the CellTiter-Glo® 2.0 Cell Viability Assay (Promega, Australia) as recommended by the manufacturer.

[3] = Example 3 (G. formicilis) study

Row | SMILES | DSS induced weight loss (DSS treated C57Bl/6 mice; Example 1 (A. shahii) study, daily treatment) | goblet cells (DSS treated C57Bl/6 mice; Example 1 (A. shahii) study, relative to vehicle treated control) | epithelial injury (DSS treated C57Bl/6 mice; Example 1 (A. shahii) study) | pathology / histopathological healing (histopathological score) (DSS treated C57Bl/6 mice; Example 1 (A. shahii) study) | epithelial injury (DSS treated C57Bl/6 mice; Example 2 (C. sana) study) | pathology / histopathological healing (histopathological score) (DSS treated C57Bl/6 mice; Example 2 (C. sana) study) | DSS induced weight loss (DSS treated C57Bl/6 mice; [3]) | epithelial injury (DSS treated C57Bl/6 mice; [3]) | pathology / histopathological healing (histopathological score) (DSS treated C57Bl/6 mice; [3]) | IL-23 mediated activation of STAT3 (SEAP expression) [1] | IL-6 mediated activation of STAT3 [2]
1 | C[C@]12C=CC(=O)C=C1CC[C@@H]1[C@@H]2C(=O)C[C@@]2(C)[C@H]1CC[C@]2(O)C(=O)CO [prednisone] | exacerbated the DSS induced weight loss | ameliorated | ameliorated | significant improvement in disease pathology | Neither prednisone nor F. prausnitzii A2-165 had a significant impact | Neither prednisone nor F. prausnitzii A2-165 had a significant impact | exacerbated the DSS induced weight loss | ameliorated | significant improvement in disease pathology | – | –
2 | C[C@@H]1CCN(C(=O)CC#N)C[C@@H]1N(C)c1ncnc2[nH]ccc12 [tofacitinib] | – | – | – | – | – | – | – | – | – | could be prevented; also recorded: inhibited IL-23 mediated SEAP expression | fully prevented
